Results reported in patent US12077503B2, “Substituted cyclic amides and their use as herbicides” (FMC CORPORATION, priority 2015, dated 2024).

Experiments:
Test in all cases: Test C preemergence
Type in all cases: in vivo
[1] = tested on: foxtail, giant (giant foxtail, Setaria faberii); conditions: for Plant response rating, Foxtail, Giant: scale 0 to 100, 0 no effect, 100 complete control
Outline: (§1)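 Seeds in loam-sand soil treated preemergence, or plants in peat-based medium sprayed postemergence at 2–18 cm (1- to 4-leaf stage), with compound in a non-phytotoxic solvent mixture containing surfactant. Greenhouse-held 13–15 d, then visually rated against controls on a 0–100 scale (0 = no effect, 100 = complete control); dash = not tested.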

[2] = tested on: johnsongrass (Sorghum halepense); conditions: for Plant response rating, Johnsongrass: scale 0 to 100, 0 no effect, 100 complete control
Outline: as §1

[3] = tested on: Galium (catchweed bedstraw, Galium aparine); conditions: for Plant response rating, Galium: scale 0 to 100, 0 no effect, 100 complete control
Outline: as §1

[4] = tested on: morningglory (Ipomoea coccinea); conditions: for Plant response rating, Morningglory: scale 0 to 100, 0 no effect, 100 complete control
Outline: as §1

[5] = tested on: waterhemp (common waterhemp, Amaranthus rudis); conditions: for Plant response rating, Waterhemp: scale 0 to 100, 0 no effect, 100 complete control
Outline: as §1

[6] = tested on: soybean (Glycine max); conditions: for Plant response rating, Soybean: scale 0 to 100, 0 no effect, 100 complete control
Outline: as §1

[7] = tested on: pigweed (Amaranthus retroflexus); conditions: for Plant response rating, Pigweed: scale 0 to 100, 0 no effect, 100 complete control
Outline: as §1

[8] = tested on: ragweed (common ragweed, Ambrosia elatior); conditions: for Plant response rating, Ragweed: scale 0 to 100, 0 no effect, 100 complete control
Outline: as §1

[9] = tested on: velvetleaf (Abutilon theophrasti); conditions: for Plant response rating, Velvetleaf: scale 0 to 100, 0 no effect, 100 complete control
Outline: as §1

[10] = tested on: ryegrass, Italian (Italian ryegrass, Lolium multiflorum); conditions: for Plant response rating, Ryegrass, Italian: scale 0 to 100, 0 no effect, 100 complete control
Outline: as §1

[11] = tested on: corn (Zea mays); conditions: for Plant response rating, Corn: scale 0 to 100, 0 no effect, 100 complete control
Outline: as §1

[12] = tested on: nutsedge, yellow (yellow nutsedge, Cyperus esculentus); conditions: for Plant response rating, Nutsedge, Yellow: scale 0 to 100, 0 no effect, 100 complete control
Outline: as §1

[13] = tested on: barnyardgrass (Echinochloa crus-galli); conditions: for Plant response rating, Barnyardgrass: scale 0 to 100, 0 no effect, 100 complete control
Outline: as §1

[14] = tested on: oilseed rape (Brassica napus); conditions: for Plant response rating, Oilseed Rape: scale 0 to 100, 0 no effect, 100 complete control
Outline: as §1

[15] = tested on: crabgrass, large (large crabgrass, Digitaria sanguinalis); conditions: for Plant response rating, Crabgrass, Large: scale 0 to 100, 0 no effect, 100 complete control
Outline: as §1

[16] = tested on: blackgrass (Alopecurus myosuroides); conditions: for Plant response rating, Blackgrass: scale 0 to 100, 0 no effect, 100 complete control
Outline: as §1

[17] = tested on: wheat (winter wheat, Triticum aestivum); conditions: for Plant response rating, Wheat: scale 0 to 100, 0 no effect, 100 complete control
Outline: as §1

[18] = tested on: lambsquarters (Chenopodium album); conditions: for Plant response rating, Lambsquarters: scale 0 to 100, 0 no effect, 100 complete control
Outline: as §1

[19] = 31 g ai/ha, 0 is no effect, 100 is complete control

Question: Which results are given for O=C1NCC(c2cccc(C(F)(F)F)c2F)C1C(=O)Nc1cccc(F)c1F (stereo not drawn) [Compound 591]?
Answer: Plant response rating (scale of 0 to 100), Foxtail, Giant [1, 19]: 85; Plant response rating, Foxtail, Giant ([1]; 62 g ai/ha): 90; Plant response rating, Foxtail, Giant ([1]; 125 g ai/ha): 90; Plant response rating, Foxtail, Giant ([1]; 250 g ai/ha): 95; Plant response rating (scale of 0 to 100), Johnsongrass [2, 19]: 35; Plant response rating, Johnsongrass ([2]; 62 g ai/ha): 55; Plant response rating, Johnsongrass ([2]; 125 g ai/ha): 75; Plant response rating, Johnsongrass ([2]; 250 g ai/ha): 85; Plant response rating (scale of 0 to 100), Galium [3, 19]: 5; Plant response rating, Galium ([3]; 62 g ai/ha): 50; Plant response rating, Galium ([3]; 125 g ai/ha): 50; Plant response rating, Galium ([3]; 250 g ai/ha): 80; Plant response rating (scale of 0 to 100), Morningglory [4, 19]: 10; Plant response rating, Morningglory ([4]; 62 g ai/ha): 30; Plant response rating, Morningglory ([4]; 125 g ai/ha): 40; Plant response rating, Morningglory ([4]; 250 g ai/ha): 65; Plant response rating (scale of 0 to 100), Waterhemp [5, 19]: 5; Plant response rating, Waterhemp ([5]; 62 g ai/ha): 30; Plant response rating, Waterhemp ([5]; 125 g ai/ha): 65; Plant response rating, Waterhemp ([5]; 250 g ai/ha): 70; Plant response rating (scale of 0 to 100), Soybean [6, 19]: 0; Plant response rating, Soybean ([6]; 62 g ai/ha): 0; Plant response rating, Soybean ([6]; 125 g ai/ha): 0; Plant response rating, Soybean ([6]; 250 g ai/ha): 0; Plant response rating (scale of 0 to 100), Pigweed [7, 19]: 10; Plant response rating, Pigweed ([7]; 62 g ai/ha): 45; Plant response rating, Pigweed ([7]; 125 g ai/ha): 60; Plant response rating, Pigweed ([7]; 250 g ai/ha): 75; Plant response rating (scale of 0 to 100), Ragweed [8, 19]: 0; Plant response rating, Ragweed ([8]; 62 g ai/ha): 20; Plant response rating, Ragweed ([8]; 125 g ai/ha): 35; Plant response rating, Ragweed ([8]; 250 g ai/ha): 70; Plant response rating (scale of 0 to 100), Velvetleaf [9, 19]: 0; Plant response rating, Velvetleaf ([9]; 62 g ai/ha): 0; Plant response rating, Velvetleaf ([9]; 125 g ai/ha): 20; Plant response rating, Velvetleaf ([9]; 250 g ai/ha): 20; Plant response rating (scale of 0 to 100), Ryegrass, Italian [10, 19]: 0; Plant response rating, Ryegrass, Italian ([10]; 62 g ai/ha): 10; Plant response rating, Ryegrass, Italian ([10]; 125 g ai/ha): 35; Plant response rating, Ryegrass, Italian ([10]; 250 g ai/ha): 75; Plant response rating (scale of 0 to 100), Corn [11, 19]: 45; Plant response rating, Corn ([11]; 62 g ai/ha): 70; Plant response rating, Corn ([11]; 125 g ai/ha): 60; Plant response rating, Corn ([11]; 250 g ai/ha): 80; Plant response rating (scale of 0 to 100), Nutsedge, Yellow [12, 19]: 0; Plant response rating, Nutsedge, Yellow ([12]; 62 g ai/ha): 0; Plant response rating, Nutsedge, Yellow ([12]; 125 g ai/ha): 0; Plant response rating, Nutsedge, Yellow ([12]; 250 g ai/ha): 0; Plant response rating (scale of 0 to 100), Barnyardgrass [13, 19]: 90; Plant response rating, Barnyardgrass ([13]; 62 g ai/ha): 90; Plant response rating, Barnyardgrass ([13]; 125 g ai/ha): 95; Plant response rating, Barnyardgrass ([13]; 250 g ai/ha): 95; Plant response rating (scale of 0 to 100), Oilseed Rape [14, 19]: 5; Plant response rating, Oilseed Rape ([14]; 62 g ai/ha): 20; Plant response rating, Oilseed Rape ([14]; 125 g ai/ha): 30; Plant response rating, Oilseed Rape ([14]; 250 g ai/ha): 85; Plant response rating (scale of 0 to 100), Crabgrass, Large [15, 19]: 90; Plant response rating, Crabgrass, Large ([15]; 62 g ai/ha): 90; Plant response rating, Crabgrass, Large ([15]; 125 g ai/ha): 90; Plant response rating, Crabgrass, Large ([15]; 250 g ai/ha): 95; Plant response rating (scale of 0 to 100), Blackgrass [16, 19]: 30; Plant response rating, Blackgrass ([16]; 62 g ai/ha): 85; Plant response rating, Blackgrass ([16]; 125 g ai/ha): 90; Plant response rating, Blackgrass ([16]; 250 g ai/ha): 90; Plant response rating (scale of 0 to 100), Wheat [17, 19]: 0; Plant response rating, Wheat ([17]; 62 g ai/ha): 10; Plant response rating, Wheat ([17]; 125 g ai/ha): 30; Plant response rating, Wheat ([17]; 250 g ai/ha): 70; Plant response rating (scale of 0 to 100), Lambsquarters [18, 19]: 10; Plant response rating, Lambsquarters ([18]; 62 g ai/ha): 20; Plant response rating, Lambsquarters ([18]; 125 g ai/ha): 35; Plant response rating, Lambsquarters ([18]; 250 g ai/ha): 70
